Each molecule was assayed against T1, human PDE10A2 (Homo sapiens, UniProt Q9Y233) (assay: PDE10 inhibitory activity, IMAP fluorescence polarization (FP) assay). Details: apparent inhibition constant, FAM-labeled cAMP 50 nM, room temperature, read-out: PDE10A Ki.
T1 construct: made in house; host or cells: AD293 cells, transient transfection; cytosolic supernatant of the sonicated lysate used as enzyme
Type: biochemical
Description: The activity of the compounds in accordance with the present invention as PDE10 inhibitors may be readily determined without undue experimentation using a fluorescence polarization (FP) methodology that is well known in the art (Huang, W., et al., J. Biomol Screen, 2002, 7: 215).
In a typical experiment the PDE 10 inhibitory activity of the compounds of the present invention was determined in accordance with the following experimental method. PDE10A2 was amplified from human fetal brain cDNA (Clontech, Mountain View, Calif.) using a forward primer corresponding to nucleotides 56-77 of human PDE10A2 (Accession No. AF127480, Genbank Identifier 4894716), containing a Kozak consensus sequence, and a reverse primer corresponding to nucleotides 2406-2413 of human PDE10A2 (Accession No. AF127480, Genbank Identifier 4894716). Amplification with Easy-A polymerase (Stratagene, La Jolla, Calif.) was 95° C. for 2 minutes followed by thirty three cycles of 95° C. for 40 seconds, 55° C. for 30 seconds, and 72° C. for 2 minutes 48 seconds. Final extension was 72° C. for 7 minutes. The PCR product was TA cloned into pcDNA3.2-TOPO (Invitrogen, Carlsbad, Calif.) according to standard protocol. AD293 cells with 70-80% confluency were transiently transfected with human PDE10A2/pcDNA3.2-TOPO using Lipofectamine 2000 according to manufacturer specifications (Invitrogen, Carlsbad, Calif.). Cells were harvested 48 hours post-transfection and lysed by sonication (setting 3, 10×5 sec pulses) in a buffer containing 20 mM HEPES, 1 mM EDTA and protease inhibitor cocktail (Roche). Lysate was collected by centrifugation at 75,000×g for 20 minutes. Supernatant containing the cytoplasmic fraction was used for evaluation of PDE10A2 activity. The fluorescence polarization assay for cyclic nucleotide phosphodiesterases was performed using an IMAP® FP kit supplied by Molecular Devices, Sunnyvale, Calif. (product #R8139). IMAP® technology has been applied previously to phosphodiesterase assays (Huang, W., et al., J. Biomol Screen, 2002, 7: 215). Assays were performed at room temperature in 384-well microtiter plates with an incubation volume of 20.2 μL. Solutions of test compounds were prepared in DMSO and serially diluted with DMSO to yield 8 μL of each of 10 solutions differing by 3-fold in concentration, at 32 serial dilutions per plate. 100% inhibition is determined using a known PDE10 inhibitor, which can be any compound that is present at 5,000 times its Ki value in the assay described as follows, such as papaverine (see Siuciak, et al. Neuropharmacology (2006) 51:386-396; Becker, et al. Behav Brain Res (2008) 186(2):155-60; Threlfell, et al., J Pharmacol Exp Ther (2009) 328(3):785-795), 2-{4-[pyridin-4-yl-1-(2,2,2-trifluoroethyl)-1H-pyrazol-3-yl]phenoxymethyl}quinoline succinic acid or 2-[4-(1-methyl-4-pyridin-4-yl-1H-pyrazol-3-yl)-phenoxymethyl]quinoline succinic acid (see Schmidt, et al. J Pharmacol Exp Ther (2008) 325:681-690; Threlfell, et al., J Pharmacol Exp Ther (2009) 328(3): 785-795), 0% of inhibition is determined by using DMSO (1% final concentrations).
A Labcyte Echo 555 (Labcyte, Sunnyvale, Calif.) is used to dispense […] from each well of the titration plate to the 384 well assay plate. A solution of enzyme (1/1600 dilution from aliquots; sufficient to produce 20% substrate conversion) and a separate solution of FAM-labeled cAMP PDE from Molecular Devices (product #R7506), at a final concentration of 50 nM are made in the assay buffer (10 mM Tris HCl, pH 7.2, 10 mM MgCl2, 0.05% NaN3 0.01% Tween-20, and 1 mM DTT). The enzyme and the substrate are then added to the assay plates in two consecutive additions of 10 μL, and then shaken to mix. The reaction is allowed to proceed at room temperature for 30 minutes. A binding solution is then made from the kit components, comprised of 80% Solution A, 20% Solution B and binding reagent at a volume of 1/600 the total binding solution. […]

T1 sequence (Q9Y233 267-1055): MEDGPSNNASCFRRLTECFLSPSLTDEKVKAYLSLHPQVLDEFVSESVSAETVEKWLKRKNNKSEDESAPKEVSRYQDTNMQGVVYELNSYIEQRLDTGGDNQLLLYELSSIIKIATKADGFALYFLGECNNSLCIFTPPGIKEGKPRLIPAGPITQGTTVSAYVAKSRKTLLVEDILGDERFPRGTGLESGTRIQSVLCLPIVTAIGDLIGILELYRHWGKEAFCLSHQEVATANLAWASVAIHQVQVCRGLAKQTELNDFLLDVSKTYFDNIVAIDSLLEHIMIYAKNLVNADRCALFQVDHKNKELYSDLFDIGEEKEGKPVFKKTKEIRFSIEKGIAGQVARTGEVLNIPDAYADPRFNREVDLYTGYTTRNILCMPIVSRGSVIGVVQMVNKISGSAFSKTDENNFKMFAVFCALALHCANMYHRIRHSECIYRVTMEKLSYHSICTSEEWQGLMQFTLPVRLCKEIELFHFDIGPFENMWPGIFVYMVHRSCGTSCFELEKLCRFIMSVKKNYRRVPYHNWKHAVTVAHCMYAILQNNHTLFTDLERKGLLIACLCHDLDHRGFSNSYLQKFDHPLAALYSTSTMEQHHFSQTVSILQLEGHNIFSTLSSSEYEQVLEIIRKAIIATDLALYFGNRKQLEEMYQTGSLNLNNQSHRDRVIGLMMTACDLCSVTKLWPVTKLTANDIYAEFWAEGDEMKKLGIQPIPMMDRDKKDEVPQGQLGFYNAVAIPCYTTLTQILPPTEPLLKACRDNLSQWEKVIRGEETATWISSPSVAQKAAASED

Row | SMILES | Ki
1 | Cc1ccc([C@@H]2C[C@H]2CN2Cc3c(cccc3-c3ncco3)C2=O)nc1 (single isomer, unassigned) [Compound 1-50, 2-{[(1S,2S) or (1R,2R)-2-(5-methylpyridin-2-yl)cyclopropyl]methyl}-4-(1,3-oxazol-2-yl)-2,3-dihydro-1H-isoindol-1-one] | 0.61 nM
2 | Cc1ccc([C@@H]2C[C@H]2CN2Cc3c(cccc3-n3cccn3)C2=O)nc1 (single isomer, unassigned) [Compound 1-54, 2-{[(1S,2S) or (1R,2R)-2-(5-methylpyridin-2-yl)cyclopropyl]methyl}-4-(1H-pyrazol-1-yl)-2,3-dihydro-1H-isoindol-1-one] | 0.86 nM
3 | COc1ccc(-n2c(CCN3Cc4cccc(OC(C)C)c4C3=O)nc3ccccc3c2=O)cc1 (single isomer, unassigned) [Compound B-6, 3-(4-methoxyphenyl)-2-{2-[1-oxo-7-(propan-2-yloxy)-1,3-dihydro-2H-isoindol-2-yl]ethyl}quinazolin-4(3H)-one] | 2.9 nM
4 | COc1ccc(-n2c(CCN3Cc4c(OC(C)C)cccc4C3=O)nc3ccccc3c2=O)cc1 (single isomer, unassigned) [Compound B-7, 3-(4-methoxyphenyl)-2-{2-[1-oxo-4-(propan-2-yloxy)-1,3-dihydro-2H-isoindol-2-yl]ethyl}quinazolin-4(3H)-one] | 1.2 nM
5 | O=C1c2cccc(-n3cccn3)c2CN1CCc1ccc2ccccc2n1 [Compound 1-17, 4-(1H-pyrazol-1-yl)-2-[2-(quinolin-2-yl)ethyl]-2,3-dihydro-1H-isoindol-1-one] | 0.46 nM
6 | O=C1c2cccc(-c3cscn3)c2CN1CCc1nc2ccccc2cc1C1CC1 [Compound 1-27, 2-[2-(3-cyclopropylquinolin-2-yl)ethyl]-4-(1,3-thiazol-4-yl)-2,3-dihydro-1H-isoindol-1-one] | 0.1 nM
7 | O=C1c2cccc(-c3cscn3)c2CN1CCc1ccc2c(n1)CCCC2O (centres unmarked) [Compound 1-28, 2-[2-(5-hydroxy-5,6,7,8-tetrahydroquinolin-2-yl)ethyl]-4-(1,3-thiazol-4-yl)-2,3-dihydro-1H-isoindol-1-one] | 1.2 nM
8 | O=C1c2cccc(-c3ncco3)c2CN1CCc1ccc2c(n1)CCCC2O (centres unmarked) [Compound 1-29, 2-[2-(5-hydroxy-5,6,7,8-tetrahydroquinolin-2-yl)ethyl]-4-(1,3-oxazol-2-yl)-2,3-dihydro-1H-isoindol-1-one] | 4.6 nM
9 | O=C1c2cccc(-c3nccs3)c2CN1CCc1csc(-c2ccn[nH]2)n1 [Compound 1-40, 2-(2-(2-(1H-pyrazol-5-yl)thiazol-4-yl)ethyl)-4-(thiazol-2-yl)isoindolin-1-one] | 5.8 nM
10 | COc1ccc(-n2c(CCN3Cc4c(Br)cccc4C3=O)nc3ccccc3c2=O)cc1 [Compound A-3, 2-[2-(4-bromo-1-oxo-1,3-dihydro-2H-isoindol-2-yl)ethyl]-3-(4-methoxyphenyl)quinazolin-4(3H)-one] | 16 nM
11 | COc1ccc(-n2c(CCN3Cc4c(cccc4-c4ncco4)C3=O)nc3ccccc3c2=O)cc1 [Compound A-4, 3-(4-methoxyphenyl)-2-{2-[4-(1,3-oxazol-2-yl)-1-oxo-1,3-dihydro-2H-isoindol-2-yl]ethyl}quinazolin-4(3H)-one] | 0.19 nM
12 | COc1ccc(-c2cc3ccccc3nc2CCN2Cc3c(cccc3-c3ncco3)C2=O)cc1 [Compound C-5, 2-{2-[3-(4-methoxyphenyl)quinolin-2-yl]ethyl}-4-(1,3-oxazol-2-yl)-2,3-dihydro-1H-isoindol-1-one] | 0.011 nM
13 | O=C1c2cccc(-n3cccn3)c2CN1CCc1ccc2ncccc2n1 [Compound D-4, 2-[2-(1,5-naphthyridin-2-yl)ethyl]-4-(1H-pyrazol-1-yl)-2,3-dihydro-1H-isoindol-1-one] | 10.9 nM
14 | CC(CN1Cc2c(cccc2-c2ncco2)C1=O)c1cn2ccccc2n1 (centres unmarked) [Compound E-5, 2-[2-(imidazo[1,2-a]pyridin-2-yl)propyl]-4-(1,3-oxazol-2-yl)-2,3-dihydro-1H-isoindol-1-one] | 5.7 nM
15 | O=C1c2cccc(-c3ncco3)c2CN1CCc1ccc2c(n1)CCCC2 [Compound F-6, 4-(1,3-oxazol-2-yl)-2-[2-(5,6,7,8-tetrahydroquinolin-2-yl)ethyl]-2,3-dihydro-1H-isoindol-1-one] | 2.3 nM
16 | Cn1cc(-c2cccc3c2CN(CCc2ccc4ncccc4n2)C3=O)nn1 [Compound H-2, 4-(1-methyl-1H 1,2,3-triazol-4-yl)-2-[2-(1,5-naphthyridin-2-yl)ethyl]isoindolin-1-one] | 50 nM
17 | O=C1c2cc(O)cc(Br)c2CN1CCc1ccc2ncccc2n1 [Compound I-4, 4-Bromo-6-hydroxy-2-[2-(1,5naphthyridin-2-yl)ethyl]isoindolin-1-one] | 17.2 nM
18 | Cn1cc(CNc2cc3c(c(-c4ncco4)n2)CN(CCc2cn4ccccc4n2)C3=O)cn1 [Compound J-9] | 11.2 nM
19 | O=C1c2cccc(-c3cscn3)c2CN1CCc1csc(-c2ccn[nH]2)n1 [Compound K-4, 2-(2-(2-(1H-pyrazol-5-yl)thiazol-4-yl)ethyl)-4-(thiazol-4-yl)isoindolin-1-one] | 0.31 nM
20 | O=C1c2cccc(-c3ncco3)c2CN1CC1CC1c1cn2ccccc2n1 (centres unmarked) [Compound M-6, 2-((2-(imidazo[1,2-a]pyridin-2-yl)cyclopropyl)methyl)-4-(oxazol-2-yl)isoindolin-1-one] | 0.14 nM
